Assay results from ChEMBL document CHEMBL5729119, “Aliphatic acid amide derivative” (2022).

Experiments:
[1] = target: 5-hydroxytryptamine receptor 7 (Homo sapiens, UniProt P34969); test: Binding Activity Assay: Human 5-HT2A Receptor, Human 5-HT7 Receptor, and Human D2 Receptor: Binding affinity of the present compound for human 5-HT2A receptor, human 5-HT7 receptor, and human D2 receptor was measured by the following procedures.CHO cell membrane fraction in which human 5-HT2A receptor, human 5-HT7 receptor, or human D2 receptor was expressed was purchased from PerkinElmer, Inc. …
Sequence of 5-hydroxytryptamine receptor 7 (P34969 whole entry): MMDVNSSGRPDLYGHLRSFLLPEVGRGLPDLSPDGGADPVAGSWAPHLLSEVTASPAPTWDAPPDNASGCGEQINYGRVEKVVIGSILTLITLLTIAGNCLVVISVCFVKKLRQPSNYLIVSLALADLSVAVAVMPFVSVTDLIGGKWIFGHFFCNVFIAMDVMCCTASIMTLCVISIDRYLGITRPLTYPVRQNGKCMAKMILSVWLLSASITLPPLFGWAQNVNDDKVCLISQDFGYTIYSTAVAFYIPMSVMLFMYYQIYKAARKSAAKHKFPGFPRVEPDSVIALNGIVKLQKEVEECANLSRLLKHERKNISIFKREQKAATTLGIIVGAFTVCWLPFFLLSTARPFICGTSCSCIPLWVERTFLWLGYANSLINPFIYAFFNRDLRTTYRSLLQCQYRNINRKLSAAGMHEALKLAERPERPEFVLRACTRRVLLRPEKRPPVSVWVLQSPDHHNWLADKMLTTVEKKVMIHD
Description: (§1) Each mixture was incubated at room temperature for 60 minutes. Non specific binding to receptors was obtained from a competitive binding test in the presence of 10 μmol/L 8-OH-DPAT, 10 μmol/L Mianserin, or 10 μmol/L Spiperone, respectively.

D(2) dopamine receptor = D(2) dopamine receptor (Homo sapiens, UniProt P14416); test: as above
Sequence of D(2) dopamine receptor (P14416 whole entry): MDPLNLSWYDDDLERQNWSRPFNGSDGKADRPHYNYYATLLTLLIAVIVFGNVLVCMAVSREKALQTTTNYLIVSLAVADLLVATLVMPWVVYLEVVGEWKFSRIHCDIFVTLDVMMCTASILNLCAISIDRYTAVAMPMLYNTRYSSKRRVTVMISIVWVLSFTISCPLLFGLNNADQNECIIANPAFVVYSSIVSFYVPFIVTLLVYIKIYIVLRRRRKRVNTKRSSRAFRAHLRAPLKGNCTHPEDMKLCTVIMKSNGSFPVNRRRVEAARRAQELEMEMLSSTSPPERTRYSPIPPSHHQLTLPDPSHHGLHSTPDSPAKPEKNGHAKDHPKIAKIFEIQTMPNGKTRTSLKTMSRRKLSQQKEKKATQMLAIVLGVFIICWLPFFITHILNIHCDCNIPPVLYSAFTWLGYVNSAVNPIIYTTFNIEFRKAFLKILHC
Description: as §1

Structure (SMILES)	Ki [1] [nM]	Ki (D(2) dopamine receptor) [nM]
CCN(CCN1CCC(c2noc3cc(F)c(C)cc23)CC1)C(=O)[C@H](C)O	20.3	> 1000
CCN(CCN1CCC(c2noc3cc(F)ccc23)CC1)C(=O)C1(O)CC1	1.1	< 100
CCN(CCN1CCC(c2noc3cc(F)ccc23)CC1)C(=O)CCO	4.9	155
